# Test results: patent publication US11559525B2, “Therapeutic drug for dyskinesia” (Sumitomo Pharma Co., Ltd., priority 2019, dated 2023)
# Structures can show the parent of a compound that is named as a salt.
# What was measured:
# [1] = test system: PD-LID rat model (6-OHDA-lesioned rats); test: Tandospirone metabolite 1-PP on dyskinesia-like symptoms in PD-LID rat model; format: in vivo; conditions: subcutaneous 10 or 30 mg/kg
# Experimental: The behavior was observed and evaluated using the same method in Example 2. 1-PP dihydrochloride (Tokyo Chemical Industry) was dissolved in saline and subcutaneously administered to rats. After 5 minutes, a levodopa containing solution was intraperitoneally administered to observe and evaluate the behavior. The results in the drawings are indicated in terms of mean value±standard error. The test results were statistically analyzed by comparison with the solvent administration group by Steel test by using the total AIMs score in 3 hours and total AIMs score in 100 to 180 minutes as parameters.
# [2] = test system: PD-LID rat model (6-OHDA-lesioned rats); test: Oral administration of tandospirone citrate on dyskinesia-like symptoms in PD-LID rat model; format: in vivo; conditions: oral 30 or 100 mg/kg
# [3] = Plasma tandospirone concentration measured after observation and evaluation of behavior in PD-LID rats; format: in vivo, rat; conditions: continuous subcutaneous infusion 60 mg/mL citrate
# Experimental: 50 μL of rat plasma sample was fractionated into a polypropylene microtube. 50 μL of methanol (50 μL of standard solution for calibration curve sample) and 200 μL of internal standard solution (Bezafibrate methanol solution: 200 nmol/L, 200 μL of methanol for blank sample) are added and stirred for about 10 seconds with a mixer. This is centrifuged (4° C., 4500 rpm, 10 min), and then the supernatant is subjected to vacuum filtration using a filter (FastRemover MF 0.2 μm). 70 μL of aqueous 10 mmol/L ammonium acetate solution is added to 70 μL of the resulting filtrate and stirred for about 10 seconds with a mixer to prepare a measurement sample.
# When evaluating a tape agent, the hair on the abdominal region of rats was shaved before the evaluation date. The tape agent of formulation 2 was applied to the abdominal regions of rats on the evaluation date at 60 cm^2/kg (37 mg/kg). After 4 hours from application, a levodopa containing solution was intraperitoneally administered to observe and evaluate the behavior. Individuals with 50% or more of the tape agent coming off during the test were excluded from analysis.
# After 4 hours from application, a levodopa containing solution was intraperitoneally administered to observe and evaluate the behavior. Individuals with 50% or more of the tape agent coming off during the test were excluded from analysis.
# After 4 hours, a levodopa containing solution was administered to observe and evaluate the behavior.
# After 4 hours, a levodopa containing solution was administered to observe and evaluate the behavior (day 0 of implanting the pump). Repeat administration of once daily levodopa containing solution was continued thereafter. The behavior was also observed and evaluated on day 13 of implanting the pump.
# [4] = test system: 6-OHDA-lesioned rats; test: Prevention/delay of manifestation of dyskinesia by continuous subcutaneous infusion in 6-OHDA-lesioned rats; format: in vivo, rat
# Experimental: The prepared solution was used after injection into an ALZET® Osmotic Pump MODEL 2ML2 (4.53 μL/hour; DURECT).
# 6-OHDA-lesioned rats were assigned to each administration group using the number of apomorphine hydrochloride hemihydrate induced rotations and body weight as indicators. […] The osmotic pump implanted subcutaneously was retrieved after the observation and evaluation of behavior on day 15. The behavior was also observed and evaluated on the following day (day 16 of repeated administration of levodopa).
# The test results were statistically analyzed by comparison with the solvent administration group using Steel test with the total AIMs score on day 16 of repeated levodopa administration as the parameter. * indicates p<0.05 and ** indicates p<0.01, meaning that there is a significant difference compared to the solvent administration group.
# [5] = test system: PD-LID rat model (6-OHDA-lesioned rats); test: Oral administration of tandospirone citrate on dyskinesia-like symptoms in PD-LID rat model; format: in vivo; conditions: oral 10, 30, or 100 mg/kg as citrate concentration, levodopa 5 minutes later
# Experimental: The behavior was observed and evaluated using the same method as Example 2. […] After 5 minutes, a levodopa containing solution was intraperitoneally administered, and the behavior was observed and evaluated. The results in the drawings are indicated in terms of mean value±standard error. The test results were statistically analyzed by comparison with the solvent administration group by Steel test using the total AIMs score in 3 hours and total AIMs score in 100 to 180 minutes as parameters. * indicates p<0.05, meaning that there is a significant difference. The dosage was described as a numerical value converted in terms of tandospirone free form.
# [6] = test system: PD-LID rat model (6-OHDA-lesioned rats); test: ON-time prolongation action (ON score, ON time without dyskinesia) in PD-LID rat model; format: in vivo
# Experimental: To make a PD-LID rat model, a mixture of levodopa methyl ester hydrochloride (6 mg/kg; Sigma-Aldrich) dissolved in saline and benserazide hydrochloride (15 mg/kg; Sigma-Aldrich) (hereinafter, also referred to as “levodopa containing solution”) was intraperitoneally administered once daily to 6-OHDA-lesioned rats. The levodopa containing solution was repeatedly administered for 3 weeks or longer to observe and evaluate the behavior. […] The sum of the scores for Limb AIMs, Axial AIMs, and Orolingual AIMs in 3 hours was used as the total dyskinesia-like symptom (AIMs) score. Individuals with a total AIMs score of less than 10 were excluded from the test as not manifesting a dyskinesia-like symptom. The behavior was observed and evaluated before the drug evaluation date. The rats were assigned to each dosing group by using the 3 hour total dyskinesia-like symptom (AIMs) score, Locomotive behavior score, and rat body weight as indicators, which were used for evaluation of drugs. For an indicator of dyskinesia behavior, the sum of the Limb AIMs, Axial AIMs, and Orolingual AIMs at each evaluation point was used as the AIMs score. For the rotational behavior (ON score), Locomotive behavior at each evaluation point was used as an indicator. The total ON score in 3 hours was used as the total ON score. For ON time without dyskinesia, the period during which the AIMs score is 0 and Locomotive behavior is 1 or greater at each evaluation point was added. Duration of action of levodopa without a dyskinesia symptom (ON time without dyskinesia) refers to the aggregate time with no dyskinesia during the antiparkinsonian action effective time, i.e., “ON-time”, and defined as the time during which the dyskinesia symptom (AIMs) score is 0 and the rotational behavior (Locomotive behavior) score is 1 or greater at each evaluation point after levodopa administration. […] After 5 minutes, a levodopa containing solution was intraperitoneally administered, and the behavior was observed and evaluated. The results in the drawings are indicated in terms of mean value±standard error. The test results were statistically analyzed by comparison with the solvent administration group using the Steel test with the total ON score in 3 hours or ON time without dyskinesia as an indicator. ** indicates p<0.01, meaning that there is a significant difference. For evaluation of a tape agent, the abdominal regions of the rats were shaved prior to the evaluation date. […] After 4 hours from application, a levodopa containing solution was intraperitoneally administered to observe and evaluate the behavior. The results in the drawings are indicated in terms of mean value±standard error. Individuals with 50% or more of the tape agent coming off during the test were excluded from analysis. The test results were statistically analyzed by comparison with the placebo tape administration group using Wilcoxon rank sum test with the total ON score in 3 hours or ON time without dyskinesia as an indicator. * indicates p<0.05 and ** indicates […], meaning that there is a significant difference compared to the solvent oral administration group or the placebo tape administration group.
# [7] = test system: PD-LID rat model (6-OHDA-lesioned rats); test: Long-term dyskinesia improving effect of continuous subcutaneous infusion in PD-LID rat model; format: in vivo
# Experimental: Individuals with a total AIMs score of less than 15 were excluded from the test as not manifesting a dyskinesia-like symptom. The behavior was observed and evaluated before the drug evaluation date. The rats were assigned to each dosing group by using the 3 hour AIMs score, Locomotive behavior score, and rat body weight as indicators, which were used for evaluation of drugs. […] The prepared solution was used after injection into an ALZET® Osmotic Pump MODEL 2ML2 (4.53 μL/hour; DURECT) for releasing a drug solution at a stable rate for 2 weeks. […] After 4 hours, a levodopa containing solution was administered to observe and evaluate the behavior (day 0 of implanting the pump). Repeat administration of once daily levodopa containing solution was continued thereafter. The behavior was also observed and evaluated on day 13 of implanting the pump. […] The results in the drawings are indicated in terms of mean value±standard error of the total AIMs scores in 3 hours. The test results were statistically analyzed using Wilcoxon rank sum test using the total AIMs score as a parameter. ** indicates p<0.01, meaning that there is a significant difference compared to the solvent administration group.
# [8] = oral 30 mg/kg and 100 mg/kg as citrate
mean value of plasma tandospirone concentrations (converted in terms of free form) ([3]; day 0 of implanting the pump),mean value of plasma tandospirone concentrations (converted in terms of free form) ([3]; day 13 of implanting the pump),Compound,clear dyskinesia-like symptom (mean AIMs score of 2 or greater) at 120 to 140 minutes after levodopa [1],total AIMs score in 100 to 180 minutes vs solvent [1],total AIMs score vs solvent ([1]; levodopa 5 minutes later),clear dyskinesia-like symptom (mean AIMs score of 2 or greater) at 120 to 140 minutes after levodopa administration [2],total AIMs score in 100 to 180 minutes vs solvent [2],"increase in total AIMs score associated with repeated administration of levodopa vs solvent ([4]; continuous subcutaneous infusion 30 mg/mL (mean 0.41 mg/kg/hour) or 60 mg/mL (mean 0.83 mg/kg/hour), days 3-15)","total AIMs score on the day after completion of administration (day 16) vs solvent ([4]; continuous subcutaneous infusion 30 or 60 mg/mL, pump retrieved day 15)",total AIMs score vs solvent [5],"ON time without dyskinesia for 180 minutes vs solvent [6, 8]","total ON score after 180 minutes of levodopa administration vs solvent [6, 8]","ON-time without dyskinesia for 180 minutes (Locomotive behavior ≥1, and AIMs score=0) ([6]; oral 100 mg/kg as citrate)",total ON score ([6]; oral 100 mg/kg as citrate),"dyskinesia-like symptoms (total AIMs score in 180 minutes) vs solvent ([7]; continuous subcutaneous infusion 60 mg/mL (mean 0.78 mg/kg/hour as citrate), day 0 of implanting the pump)","dyskinesia-like symptoms (total AIMs score in 180 minutes) vs solvent ([7]; continuous subcutaneous infusion 60 mg/mL citrate, day 13 of implanting the pump)"
,,"c1cnc(N2CCNCC2)nc1 [1-PP dihydrochloride, 1-(2-Pyrimidyl) piperazine]",clear dyskinesia-like symptom (mean AIMs score of 2 or greater) was observed,"increasing trend in the total AIMs score, albeit not significant",significant change in the total AIMs score was not found,,,,,,,,,,,
281 ng/mL,143 ng/mL,tandospirone citrate,,,,clear dyskinesia-like symptom (mean AIMs score of 2 or greater) was observed,significant increase,suppressed the increase in total AIMs score,significantly lower,significant change in the total AIMs score was not observed,increase in ON time without dyskinesia,increase in the total ON score,significant prolongation,increase in the total ON score,Significant improvement,significant improvement
